# Results published in US20250186403A1 (ARIZONA BOARD OF REGENTS ON BEHALF OF THE UNIVERSITY OF …, priority 2022, published 2025).
# Key:
# [1] = test system: Cne-WT in RAW 264.7 macrophages; assay: Phagocytosis assay (macrophage intracellular infection model); assay type: cell-based, Cryptococcus neoformans; conditions: for reduction of intracellular Cne in macrophages: 24 h, macrophage lysate
# Experimental: FIGS. 1B, 1C, and 1D show phagocytosis assays. RAW 264.7 cells were seeded in 24 well plates and differentiated into macrophages using PMA. Media was replaced with fresh media containing opsonized Cne-WT and incubated at 37° C. for 8 h. Cells were washed 3 times with PBS to remove non-phagocytosed fungal cells. […] Culture supernatants were diluted and plated onto SD agar plates for tittering the fungal load. The cells were washed thrice with PBS and homogenized with a small homogenizer, diluted, and plated on SD agar plates. Colonies were counted after 72 h. […] Treatment groups were compared with unpaired Student's t-test. p<0.05 is considered significant. […] Insert: enlarged view of the phagocytosed Cne cells. The cells were permeabilized with methanol and stained with Giemsa stain. CFU: […] Cne: Cryptococcus neoformans.
# Phagocytosis assay: Mouse monocyte/macrophage-like cells RAW 264.7 were seeded in the six-well plate in DMEM media with 10% FBS and incubated at 37° C. in a CO2 incubator. Once it reached 70% confluently, the cells were differentiated into macrophages by replacing the culture supernatant with fresh media containing 100 nM phorbol 12-myristate 13-acetate (PMA) and incubated at 37° C. for 48 h in a CO2 incubator. Differentiated cells in six-well plates were washed once with PBS to remove loosely bound cells. Cne-WT cells were grown overnight in the SD broth media and washed thrice in 0.1 mM PBS, opsonized with 20% human complement serum (Sigma, USA) and 20 μg glucuronoxylomannan specific antibody (clone 18B7, EMD Millipore, USA) by incubating at 37° C. for 30 min with rotating end to end. The Cne cells were washed thrice with PBS to remove unbound antibodies and serum components. The opsonized Cne cells were added to the macrophages at 1:10 ratio and incubated at 37° C. for 10 h. […] The fungal load in the media and the cells was estimated. For tittering, 100 μl of the culture supernatant was plated onto the SD-agar plates with tenfold dilutions. The cells were washed with PBS, scraped, and harvested in PBS, homogenized with a disposable homogenizer. A volume of 30 μl was mixed with 60 μl SD media and plated onto the SD agar plates. The plates were incubated at 30° C. for 72 h, and colonies were counted.
# Cne-WT and Cne-Mut = assay: Resazurin-based HTS growth assay, dose-response IC50; assay type: cell-based, Cryptococcus neoformans; conditions: 24 h
# Experimental: HTS assay: A resazurin-based growth assay was developed for primary screening, employing two strains of Cne, the Cne-WT with natural intein and Cne-Mut, the mutant strain without intein. The assay was first standardized in 96 well formats and later optimized for 384 well plates. The HTS was done at ICCB-Longwood screening facility, Harvard University, Boston, USA. For HTS, the fungal cells were grown in SD broth overnight and diluted in SD broth to an optical density (OD) 0.5 at 600 nm. The cell suspension is further diluted 1:10 in RPMI 1640 media with 0.165 M MOPS, 2% glucose (RPMI-MOPS) so that the final OD will be 0.05. […] The conversion of resazurin to resorufin by live cells were estimated by reading fluorescence at Ex 550 nm and Em 590 nm using a plate reader (EnVision, Perkin Elmer). Additionally, the absorbance was also read at 600 nm using the plate reader (EnVision, Perkin Elmer). […] The ratio of fluorescence reading in Cne-WT and Cne-Mut was used to advance positive compounds.
# Concentration series (0.02 to 50 µM) of test compounds and equalizing volume of DMSO were dispensed using a liquid handler (D300 e, Hewlett Packard) to the 384 well plates. Following the addition of Cne cell suspension, the assay plates were incubated for 24 h, and fluorescence readings of resorufin were taken as explained for single concentration screening.
# [2] = Cryptococcus neoformans, RAW264.7, 24 h, read-out: inhibition of released Cne
smiles,measurement,setting,value
"CNc1ccc2oc(C[C@H]3O[C@@]4(CC[C@H]3C)O[C@H]([C@H](C)C(=O)c3ccc[nH]3)[C@H](C)C[C@H]4C)nc2c1C(=O)O [CMN, calcimycin]",reduction of intracellular Cne in macrophages,[1]; 0.3 μg/ml CMN,23%
same,reduction of intracellular Cne in macrophages,[1]; 0.6 μg/ml CMN,50%
same,reduction of intracellular Cne in macrophages,[1]; CMN,72%
same,inhibition at 0.3 µg/mL,[1]; [2],41%
same,inhibition at 0.6 µg/mL,[1]; [2],59%
same,inhibition at 1.3 µg/mL,[1]; [2],69%
same,released Cne (significance),[1]; at 0.3 μg/ml,significantly reduced
same,growth of intracellular Cne in macrophages (significance),[1]; at 0.6 μg/ml,significantly reduced
same,difference in IC50 (Cne-Mut vs Cne-WT),Cne-WT and Cne-Mut,2.5 fold
